Measured values from US10336697B2, “Spiro[cyclobutane-1,3′-indolin]-2′-one derivatives as bromodomain inhibitors” (Orion Corporation, priority 2015, dated 2019).

Target: Bet BRD4 full length bromo-domain protein (Homo sapiens, UniProt O60885)
Assay: Bet bromodomain TR-FRET assay (displacement of acetyl histone peptide)
Format: binding
Details: Bet BRD4 full length bromodomain protein, 300 nM acetyl histone peptide substrate, read-out: IC50

`COc1cc(Cl)ccc1S(=O)(=O)Nc1cc(OC2CCN(C)CC2)c2c(c1)C1(CCC1)C(=O)N2` [compound 188, 4-Chloro-2-methoxy-N-(7′-((1-methylpiperidin-4-yl)oxy)-2′-oxospiro[cyclobutane-1,3′-indolin]-5′-yl)benzenesulfonamide] and `COc1cccc(F)c1S(=O)(=O)Nc1cc(OC2CCN(C)CC2)c2c(c1)C1(CCC1)C(=O)N2` [Compound-185, 2-Fluoro-6-methoxy-N-(7′-((1-methylpiperidin-4-yl)oxy)-2′-oxospiro[cyclobutane-1,3′-indolin]-5′-yl)benzenesulfonamide] cannot be ordered by IC50: less than 0.6 µM for the first, less than 0.6 µM for the second.

Compared with `O=C1NCCc2ccc(-c3cc(NS(=O)(=O)c4ccc(F)cc4F)cc4c3NC(=O)C43CCC3)cc21` [Compound 4, 2,4-Difluoro-N-(2′-oxo-7′-(1-oxo-1,2,3,4-tetrahydroisoquinolin-7-yl)spiro[cyclobutane-1,3′-indolin]-5′-yl)benzenesulfonamide], `COc1cc(-c2cc(NS(=O)(=O)c3ccc(F)cc3F)cc3c2NC(=O)C32CCC2)ccn1` [Compound 2, 2,4-Difluoro-N-(7′-(2-methoxypyridin-4-yl)-2′-oxospiro [cyclobutane-1,3′-indolin]-5′-yl)benzenesulfonamide] is higher in IC50: less than 0.6 µM for the first, 0.6 to 1 µM for the second.

`COc1ccccc1S(=O)(=O)Nc1cc(OCc2ccccn2)c2c(c1)C1(CCC1)C(=O)N2` [Compound 158, 2-Methoxy-N-(2′-oxo-7′-(pyridin-2-ylmethoxy)spiro[cyclobutane-1,3′-indolin]-5′-yl)benzenesulfonamide] and `COc1ccccc1S(=O)(=O)Nc1cc(OCc2cccnc2)c2c(c1)C1(CCC1)C(=O)N2` [Compound 157, 2-Methoxy-N-(2′-oxo-7′-(pyridin-3-ylmethoxy)spiro[cyclobutane-1,3′-indolin]-5′-yl)benzenesulfonamide] cannot be ordered by IC50: less than 0.6 µM for the first, less than 0.6 µM for the second.

Going from `COc1cccc(OC)c1S(=O)(=O)Nc1cc(OC2CCN(C)CC2)c2c(c1)C1(CCC1)C(=O)N2` [compound 186, 2,6-Dimethoxy-N-(7′-((1-methylpiperidin-4-yl)oxy)-2′-oxospiro[cyclobutane-1,3′-indolin]-5′-yl)benzenesulfonamide] to `CN1CCC(Oc2cc(NS(=O)(=O)c3ccc(F)cc3F)cc3c2NC(=O)C32CCC2)CC1` [Compound 171], the IC50 falls from greater than 1 µM to less than 0.6 µM.

Compared with `O=C(c1cc(NS(=O)(=O)c2ccc(F)cc2N2CCOCC2)cc2c1NC(=O)C21CCC1)N1CCOCC1` [Compound 61, 4-Fluoro-N-(7′-(morpholine-4-carbonyl)-2′-oxospiro[cyclobutane-1,3′-indolin]-5′-yl)-2-morpholinobenzenesulfonamide], `O=C(NC1CCOCC1)c1cc(NS(=O)(=O)c2ccc(F)cc2F)cc2c1NC(=O)C21CCC1` [Compound 50, 5′-(2,4-Difluorophenylsulfonamido)-2′-oxo-N-(tetrahydro-2H-pyran-4-yl)spiro[cyclobutane-1,3′-indoline]-7′-carboxamide] is lower in IC50: greater than 1 µM for the first, less than 0.6 µM for the second.

First: CC(c1ccccc1)c1cc(NS(=O)(=O)c2ccc(F)cc2F)cc2c1NC(=O)C21CCC1 (stereo not shown) [Compound 126, 2,4-Difluoro-N-(2′-oxo-7′-(1-phenylethyl)spiro[cyclobutane-1,3′-indolin]-5′-yl)benzenesulfonamide]
Second: Nc1cc(NS(=O)(=O)c2ccc(F)cc2F)cc2c1NC(=O)C21CCC1 [Compound 15, N-(7′-amino-2′-oxospiro[cyclobutane-1,3′-indolin]-5′-yl)-2,4-difluoro-benzenesulfonamide]
The IC50 of the first is higher: 0.6 to 1 µM for the first, less than 0.6 µM for the second. The second is the more potent here.

Going from `COc1ccccc1S(=O)(=O)Nc1cc(B(O)O)c2c(c1)C1(CCC1)C(=O)N2` [Compound-217, (5′-((2-Methoxyphenyl)sulfonamido)-2′oxospiro[cyclobutane-1,3′-indolin]-7′-yl)boronic acid] to `COc1ccccc1S(=O)(=O)Nc1cc(N)c2c(c1)C1(CCC1)C(=O)N2` [Compound 12, N-(7′-amino-2′-oxospiro[cyclobutane-1,3′-indolin]-5′-yl)-2-methoxy-benzenesulfonamide], the IC50 falls from greater than 1 µM to less than 0.6 µM. The second is the more potent here.

`O=C1Nc2c(OCCn3cccn3)cc(NS(=O)(=O)c3ccc(Cl)cc3F)cc2C12CCC2` [Compound 161, N-(7′-(2-(1H-pyrazol-1-yl)ethoxy)-2′-oxospiro[cyclobutane-1,3′-indolin]-5′-yl)-4-chloro-2-fluorobenzenesulfonamide] and `O=C1Nc2c(OC3CCOCC3)cc(NS(=O)(=O)c3ccc(Cl)cc3F)cc2C12CCC2` [Compound 142, 4-Chloro-2-fluoro-N-(2′-oxo-7′-((tetrahydro-2H-pyran-4-yl)oxy)spiro[cyclobutane-1,3′-indolin]-5′-yl)benzenesulfonamide] cannot be ordered by IC50: less than 0.6 µM for the first, less than 0.6 µM for the second.

`COc1ccccc1S(=O)(=O)Nc1cc(NC2CCCN(C)C2)c2c(c1)C1(CCC1)C(=O)N2` (stereo not shown) [Compound 38, 2-Methoxy-N-(7′-((1-methylpiperidin-3-yl)amino)-2′-oxospiro[cyclobutane-1,3′-indolin]-5′-yl)benzenesulfonamide] and `CN1CCCC(Nc2cc(NS(=O)(=O)c3ccc(F)cc3F)cc3c2NC(=O)C32CCC2)C1` (stereo not shown) [Compound 16, 2,4-difluoro-N-(7′-((1-methylpiperidin-3-yl)amino)-2′-oxospiro [cyclobutane-1,3′-indolin]-5′-yl)benzenesulfonamide] cannot be ordered by IC50: less than 0.6 µM for the first, less than 0.6 µM for the second.

`COc1ccccc1S(=O)(=O)Nc1cc(OCc2cncc(F)c2)c2c(c1)C1(CCC1)C(=O)N2` [Compound 149, N-(7′-((5-fluoropyridin-3-yl)methoxy)-2′-oxospiro[cyclobutane-1,3′-indolin]-5′-yl)-2-methoxybenzenesulfonamide] and `COc1ccccc1S(=O)(=O)Nc1cc(OC2CCN(C(C)C)CC2)c2c(c1)C1(CCC1)C(=O)N2` [Compound 136, N-(7′-((1-isopropylpiperidin-4-yl)oxy)-2′-oxospiro[cyclobutane-1,3′-indolin]-5′-yl)-2-methoxybenzenesulfonamide] cannot be ordered by IC50: less than 0.6 µM for the first, less than 0.6 µM for the second.

`O=C1Nc2c(NC3CN4CCC3CC4)cc(NS(=O)(=O)c3ccc(F)cc3F)cc2C12CCC2` (stereo not shown) [Compound 19, 2,4-Difluoro-N-(2′-oxo-7′-(quinuclidin-3-ylamino)spiro[cyclobutane-1,3′-indolin]-5′-yl)benzenesulfonamide] and `O=C1Nc2c(NC3CCNCC3)cc(NS(=O)(=O)c3ccc(F)cc3F)cc2C12CCC2` [Compound 79a, 2,4-Difluoro-N-(2′-oxo-7′-(piperidin-4-ylamino)spiro [cyclobutane-1,3′-indolin]-5′-yl)benzenesulfonamide] cannot be ordered by IC50: less than 0.6 µM for the first, less than 0.6 µM for the second.

First: CN1CCC(NC(=O)c2cc(NS(=O)(=O)c3ccc(Cl)cc3F)cc3c2NC(=O)C32CCC2)CC1 [Compound-211, 5′-((4-Chloro-2-fluorophenyl)sulfonamido)-N-(1-methylpiperidin-4-yl)-2′-oxospiro[cyclobutane-1,3′-indoline]-7′-carboxamide]
Second: CCN1CCC(NC(=O)c2cc(NS(=O)(=O)c3ccc(F)cc3F)cc3c2NC(=O)C32CCC2)CC1 [Compound 54, 5′-(2,4-Difluorophenylsulfonamido)-N-(1-ethylpiperidin-4-yl)-2′-oxospiro[cyclobutane-1,3′-indoline]-7′-carboxamide]
The IC50 of the first is higher: 0.6 to 1 µM for the first, less than 0.6 µM for the second. The second is the more potent here.

`O=C1Nc2c(NCc3cnc[nH]3)cc(NS(=O)(=O)c3ccc(F)cc3F)cc2C12CCC2` [Compound 25, N-(7′-(((1H-imidazol-5-yl)methyl)amino)-2′-oxospiro [cyclo butane-1,3′-indolin]-5′-yl)-2,4-difluorobenzene sulfonamide] and `Cn1cnc(CNc2cc(NS(=O)(=O)c3ccc(F)cc3F)cc3c2NC(=O)C32CCC2)c1` [Compound 31, 2,4-Difluoro-N-(7′-(((1-methyl-1H-imidazol-4-yl)methyl)amino)-2′-oxospiro[cyclobutane-1,3′-indolin]-5′-yl)benzenesulfonamide] cannot be ordered by IC50: less than 0.6 µM for the first, less than 0.6 µM for the second.

Compared with `CN1CCC(Oc2cc(NC(=O)c3ccc(Cl)cc3F)cc3c2NC(=O)C32CCC2)CC1` [compound 224, 4-Chloro-2-fluoro-N-(7′-((1-methylpiperidin-4-yl)oxy)-2′-oxospiro[cyclobutane-1,3′-indolin]-5′-yl)benzamide], `CN1CCC(c2cc(NS(=O)(=O)c3ccc(F)cc3F)cc3c2NC(=O)C32CCC2)CC1` [Compound 89, 2,4-Difluoro-N-(7′-(1-methylpiperidin-4-yl)-2′-oxospiro[cyclobutane-1,3′-indolin]-5′-yl)benzenesulfonamide] is lower in IC50: greater than 1 µM for the first, less than 0.6 µM for the second.

`CCCN1CCC(Nc2cc(NS(=O)(=O)c3ccc(F)cc3F)cc3c2NC(=O)C32CCC2)CC1` [Compound 29, 2,4-Difluoro-N-(2′-oxo-7′-((1-propylpiperidin-4-yl)amino)spiro[cyclobutane-1,3′-indolin]-5′-yl)benzenesulfonamide] and `CCN1CCCC(Nc2cc(NS(=O)(=O)c3ccc(F)cc3F)cc3c2NC(=O)C32CCC2)C1` (stereo not shown) [Compound 70, N-(7′-((1-ethylpiperidin-3-yl)amino)-2′-oxospiro[cyclobutane-1,3′-indolin]-5′-yl)-2,4-difluorobenzenesulfonamide] cannot be ordered by IC50: less than 0.6 µM for the first, less than 0.6 µM for the second.

Compared with `CC1(C)CN(Cc2ccccc2)CCC1Nc1cc(NS(=O)(=O)c2ccc(F)cc2F)cc2c1NC(=O)C21CCC1` (stereo not shown) [Compound 36, N-(7′-((1-benzyl-3,3-dimethylpiperidin-4-yl)amino)-2′-oxospiro[cyclobutane-1,3′-indolin]-5′-yl)-2,4-difluorobenzenesulfonamide], `COC(=O)c1cc(NS(=O)(=O)c2ccc(F)cc2F)cc2c1NC(=O)C21CCC1` [Compound 41, Methyl 5′-((2,4-difluorophenyl)sulfonamido)-2′-oxospiro[cyclobutane-1,3′-indoline]-7′-carboxylate] is lower in IC50: 0.6 to 1 µM for the first, less than 0.6 µM for the second. The second is the more potent here.

First: COc1ccccc1S(=O)(=O)Nc1cc(C(=O)NC2CCN(C)CC2)c2c(c1)C1(CCC1)C(=O)N2 [Compound 60, 5′-(2-Methoxyphenylsulfonamido)-N-(1-methylpiperidin-4-yl)-2′-oxospiro[cyclobutane-1,3′-indoline]-7′-carboxamide]
Second: COc1ccccc1S(=O)(=O)Nc1cc(OC2CCN(C)CC2)c2c(c1Cl)C1(CCC1)C(=O)N2 [Compound-215, N-(4′-chloro-7′-((1-methylpiperidin-4-yl)oxy)-2′-oxospiro-[cyclobutane-1,3′-indolin]-5′-yl)-2-methoxybenzenesulfonamide]
The IC50 of the first is lower: less than 0.6 µM for the first, 0.6 to 1 µM for the second.
